Data from US20230265151A1, “GIP/GLP1 CO-AGONIST COMPOUNDS” (priority 2020, published 2023).
Like-named read-outs stand apart in the source and are kept apart here.

Key:
hGLP-1R = hGLP-1R (Homo sapiens, UniProt P43220); assay: Functional cAMP formation (HTRF) in HEK-293 clonal cells expressing hGLP-1R, 0.1% bovine casein, without or with 1.0% human serum albumin; type: cell-based; design: expressed in transfected cells; details: for Emax: percent of maximal response to GLP-1(7-36)NH2; for EC50: cAMP
In short: (§1)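 Cells were stimulated with peptide for 30 min at 37° C, then intracellular cAMP was measured by competitive HTRF (665/620 nm ratio) and converted to nM using a cAMP standard curve. Relative EC50 and Emax came from four-parameter logistic fits of percent maximal response against peptide concentration.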

hGCGR = target: T1, hGCGR (Homo sapiens, UniProt P47871); assay: Functional cAMP formation (HTRF) in HEK-293 clonal cells expressing hGCGR, 0.1% bovine casein, without or with 1.0% human serum albumin; type: cell-based; details: cAMP, 37° C.
T1 construct: expressed in transfected cells
In short: as §1

hGIPR = target: T2, hGIPR (Homo sapiens, UniProt P48546); assay: Functional cAMP formation (HTRF) in HEK-293 clonal cells expressing hGIPR, 0.1% bovine casein, without or with 1.0% human serum albumin; type: cell-based; details: for Emax: percent of maximal response to GIP(1-42)NH2; for EC50: cAMP
T2 construct: expressed in transfected cells
T2 sequence (P48546 22-466): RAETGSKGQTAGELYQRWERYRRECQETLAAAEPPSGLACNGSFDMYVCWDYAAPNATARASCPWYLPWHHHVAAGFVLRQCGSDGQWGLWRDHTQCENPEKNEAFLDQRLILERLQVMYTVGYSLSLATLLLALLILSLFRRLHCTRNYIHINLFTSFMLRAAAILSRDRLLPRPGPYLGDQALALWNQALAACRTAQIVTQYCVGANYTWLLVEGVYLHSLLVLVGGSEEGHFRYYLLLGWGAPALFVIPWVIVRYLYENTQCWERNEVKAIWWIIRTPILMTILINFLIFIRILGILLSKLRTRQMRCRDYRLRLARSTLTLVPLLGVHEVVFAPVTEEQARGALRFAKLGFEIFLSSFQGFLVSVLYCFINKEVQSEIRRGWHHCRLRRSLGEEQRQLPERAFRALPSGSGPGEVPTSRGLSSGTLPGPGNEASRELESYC
In short: as §1

[1] = target: T3, human GLP-1 receptor (hGLP-1R) (Homo sapiens, UniProt P43220); assay: [125I]-GLP-1 binding, SPA with membranes of HEK293 cells expressing hGLP-1R
T3 construct: expressed in transfected cells; crude membranes

[2] = 37° C., 0.1% bovine casein (no human serum albumin), geometric mean, read-out: hGLP-1R EC50, nM (SEM, n)
[3] = 0.1% bovine casein (no human serum albumin), geometric mean, read-out: hGCGR EC50, nM (SEM, n)
[4] = 0.1% bovine casein and 1.0% human serum albumin, geometric mean (SEM, n), read-out: hGCGR EC50, nM (SEM, n)
[5] = HEK293, cAMP, 37° C., 0.1% bovine casein and 1.0% human serum albumin, read-out: hGIPR Emax, % ± SEM
[6] = 37° C., 0.1% bovine casein (no human serum albumin), geometric mean, read-out: hGIPR EC50, nM (SEM, n)
[7] = human GLP-1R, geometric mean (SEM, n), read-out: Binding Affinity Ki, nM (SEM, n) hGLP-1R
[8] = HEK293, cAMP, 37° C., 0.1% bovine casein and 1.0% human serum albumin, read-out: hGLP-1R Emax, % ± SEM
[9] = HEK293, cAMP, 37° C., 0.1% bovine casein, arithmetic mean, read-out: hGLP-1R Emax, % ± SEM

T3 sequence (P43220 24-463): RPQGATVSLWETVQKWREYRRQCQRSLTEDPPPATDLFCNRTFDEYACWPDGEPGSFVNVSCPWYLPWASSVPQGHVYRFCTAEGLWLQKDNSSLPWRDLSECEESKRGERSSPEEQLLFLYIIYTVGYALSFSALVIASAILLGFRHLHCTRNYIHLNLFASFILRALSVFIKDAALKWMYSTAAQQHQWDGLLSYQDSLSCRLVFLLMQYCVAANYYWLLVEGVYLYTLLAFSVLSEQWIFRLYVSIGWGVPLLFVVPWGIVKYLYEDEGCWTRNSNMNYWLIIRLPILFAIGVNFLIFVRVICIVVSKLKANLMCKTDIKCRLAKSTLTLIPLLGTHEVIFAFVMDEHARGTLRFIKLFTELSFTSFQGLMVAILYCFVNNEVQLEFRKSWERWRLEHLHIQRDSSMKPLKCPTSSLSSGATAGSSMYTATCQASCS
Sequence of hGLP-1R (P43220 24-463): as above
T1 sequence (P47871 26-477): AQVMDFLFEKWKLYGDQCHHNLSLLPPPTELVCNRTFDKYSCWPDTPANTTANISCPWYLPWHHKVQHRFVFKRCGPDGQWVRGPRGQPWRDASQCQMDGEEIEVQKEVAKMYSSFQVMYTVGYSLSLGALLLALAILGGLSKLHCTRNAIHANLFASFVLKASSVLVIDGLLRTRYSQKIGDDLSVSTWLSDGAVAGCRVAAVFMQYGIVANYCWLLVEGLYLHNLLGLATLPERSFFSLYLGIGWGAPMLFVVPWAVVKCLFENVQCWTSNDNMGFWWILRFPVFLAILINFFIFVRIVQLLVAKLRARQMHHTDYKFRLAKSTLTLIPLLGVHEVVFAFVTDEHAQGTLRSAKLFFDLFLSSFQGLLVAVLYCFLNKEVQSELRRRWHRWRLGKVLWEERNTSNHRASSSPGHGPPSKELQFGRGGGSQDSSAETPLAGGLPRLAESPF

Row | SMILES | Emax (hGLP-1R; HEK293, read-out: hGLP-1R Emax, % ± SEM, cAMP, 37° C., 0.1% bovine casein and 1.0% human serum albumin) [%] | Emax (hGLP-1R; HEK293, read-out: hGLP-1R Emax, % ± SEM, cAMP, 37° C., 0.1% bovine casein, arithmetic mean) [%] | EC50 (hGLP-1R; hGLP-1R EC50, nM (SEM, n), 37° C., 0.1% bovine casein (no human serum albumin), geometric mean) [nM] | EC50 (hGCGR; hGCGR EC50, nM (SEM, n), 0.1% bovine casein (no human serum albumin), geometric mean) [nM] | EC50 (hGCGR; hGCGR EC50, nM (SEM, n), 0.1% bovine casein and 1.0% human serum albumin, geometric mean (SEM, n)) [nM] | Emax (hGIPR; HEK293, read-out: hGIPR Emax, % ± SEM, cAMP, 37° C., 0.1% bovine casein and 1.0% human serum albumin) [%] | EC50 (hGIPR; hGIPR EC50, nM (SEM, n), 37° C., 0.1% bovine casein (no human serum albumin), geometric mean) [nM] | EC50 (hGIPR; hGIPR EC50, nM (SEM, n), 37° C., 0.1% bovine casein and 1.0% human serum albumin, geometric mean (SEM, n)) [nM] | Ki [1] [nM] | EC50 (hGLP-1R; [2]) [nM] | EC50 (hGLP-1R; 37° C., 0.1% bovine casein and 1.0% human serum albumin, geometric mean (SEM, n), read-out: hGLP-1R EC50, nM (SEM, n)) [nM] | EC50 (hGCGR; [3]) [nM] | EC50 (hGCGR; [4]) [nM] | Emax (hGIPR; [5]) [%] | Emax (hGIPR; HEK293, cAMP, 37° C., 0.1% bovine casein, arithmetic mean, read-out: hGIPR Emax, % ± SEM) [%] | EC50 (hGIPR; [6]) [nM] | Ki [1, 7] [nM] | Emax (hGLP-1R; [8]) [%] | Emax (hGLP-1R; [9]) [%]
1 | CC[C@H](C)[C@H](NC(=O)[C@H](CC(C)C)NC(=O)[C@](C)(Cc1ccc(O)cc1)NC(=O)[C@@H](CCC(=O)O)NC(=O)[C@@H](NC(=O)[C@H](Cc1ccccc1)NC(=O)[C@H](CCC(=O)O)NC(=O)C(C)(C)NC(=O)[C@H](CCC(N)=O)NC(=O)[C@H](C)NC(=O)[C@H](CCCCNC(=O)COCCOCCNC(=O)CC[C@H](NC(=O)CCCCCCCCCOc1ccc(C(=O)O)cc1)C(=O)O)NC(=O)[C@H](CCCN)NC(=O)[C@H](CC(=O)O)NC(=O)[C@H](CC(C)C)NC(=O)[C@](C)(CC(C)C)NC(=O)[C@@H](NC(=O)C(C)(C)NC(=O)[C@H](Cc1ccncc1)NC(=O)[C@H](CC(=O)O)NC(=O)[C@H](CO)NC(=O)[C@@H](NC(=O)[C@](C)(Cc1ccccc1F)NC(=O)[C@@H](NC(=O)CNC(=O)[C@H](CCC(=O)O)NC(=O)C(C)(C)NC(=O)[C@@H](N)Cc1ccc(O)cc1)[C@@H](C)O)[C@@H](C)O)[C@@H](C)CC)[C@@H](C)CC)C(=O)N[C@@H](CCCCNC(=O)COCCOCCNC(=O)CC[C@H](NC(=O)CCCCCCCCCOc1ccc(C(=O)O)cc1)C(=O)O)C(=O)NCC(=O)NCC(=O)N1CCC[C@H]1C(=O)N[C@@H](CO)C(=O)N[C@@H](CO)C(=O)NCC(=O)N[C@@H](C)C(=O)N1CCC[C@H]1C(=O)N1CCC[C@H]1C(=O)N1CCC[C@H]1C(=O)N[C@@H](CO)C(N)=O [Example 361] | 98.8 | 98.2 | 0.58 | > 9950 | > 9950 | 88.8 | 0.0121 | 1.44 | 1.22 |  |  |  |  |  |  |  |  |  | 
2 | CCCCCCCCCCCC(=O)N[C@@H](CCC(=O)NCCOCCOCC(=O)NCCOCCOCC(=O)NCCOCCOCC(=O)NCCCC[C@H](NC(=O)[C@H](CCCN)NC(=O)[C@H](CC(=O)O)NC(=O)[C@H](CC(C)C)NC(=O)[C@](C)(CC(C)C)NC(=O)[C@@H](NC(=O)C(C)(C)NC(=O)[C@H](Cc1ccncc1)NC(=O)[C@H](CC(=O)O)NC(=O)[C@H](CO)NC(=O)[C@@H](NC(=O)[C@](C)(Cc1ccccc1F)NC(=O)[C@@H](NC(=O)CNC(=O)[C@H](CCC(=O)O)NC(=O)C(C)(C)NC(=O)[C@@H](N)Cc1ccc(O)cc1)[C@@H](C)O)[C@@H](C)O)[C@@H](C)CC)C(=O)N[C@@H](C)C(=O)N[C@@H](CCC(N)=O)C(=O)NC(C)(C)C(=O)N[C@@H](CCCN)C(=O)N[C@@H](Cc1ccccc1)C(=O)N[C@H](C(=O)N[C@H](CCC(=O)O)C(=O)N[C@@](C)(Cc1ccc(O)cc1)C(=O)N[C@@H](CC(C)C)C(=O)N[C@H](C(=O)N[C@@H](CCCCNC(=O)COCCOCCNC(=O)COCCOCCNC(=O)COCCOCCNC(=O)CC[C@H](NC(=O)CCCCCCCCCCC)C(=O)O)C(=O)NCC(=O)NCC(=O)N1CCC[C@H]1C(=O)N[C@@H](CO)C(=O)N[C@@H](CO)C(=O)NCC(=O)N[C@@H](C)C(=O)N1CCC[C@H]1C(=O)N1CCC[C@H]1C(=O)N1CCC[C@H]1C(=O)N[C@@H](CO)C(N)=O)[C@@H](C)CC)[C@@H](C)CC)C(=O)O [Example 434] |  |  |  |  |  |  |  |  |  | 0.0837 | 1.73 | > 9950 | > 9950 | 97.5 | 98.3 | 0.00704 | 0.15 |  | 
3 | CCCCCCCCCCCC(=O)N[C@@H](CCC(=O)NCCOCCOCC(=O)NCCOCCOCC(=O)NCCOCCOCC(=O)NCCCC[C@H](NC(=O)[C@H](CO)NC(=O)[C@@H]1CCCN1C(=O)[C@@H]1CCCN1C(=O)[C@@H]1CCCN1C(=O)[C@H](C)NC(=O)CNC(=O)[C@H](CO)NC(=O)[C@H](CO)NC(=O)[C@@H]1CCCN1C(=O)CNC(=O)CNC(=O)[C@H](CCC(=O)O)NC(=O)[C@@H](NC(=O)[C@H](CC(C)C)NC(=O)[C@](C)(Cc1ccc(O)cc1)NC(=O)[C@@H](CCC(=O)O)NC(=O)[C@@H](NC(=O)[C@H](Cc1ccccc1)NC(=O)[C@H](CCCN)NC(=O)C(C)(C)NC(=O)[C@H](CCC(N)=O)NC(=O)[C@H](C)NC(=O)[C@H](CCCCNC(=O)COCCOCCNC(=O)COCCOCCNC(=O)COCCOCCNC(=O)CC[C@H](NC(=O)CCCCCCCCCCC)C(=O)O)NC(=O)[C@H](CCCN)NC(=O)[C@H](CC(=O)O)NC(=O)[C@H](CC(C)C)NC(=O)[C@](C)(CC(C)C)NC(=O)[C@@H](NC(=O)C(C)(C)NC(=O)[C@H](Cc1ccncc1)NC(=O)[C@H](CC(=O)O)NC(=O)[C@H](CO)NC(=O)[C@@H](NC(=O)[C@](C)(Cc1ccccc1F)NC(=O)[C@@H](NC(=O)CNC(=O)[C@H](CCC(=O)O)NC(=O)C(C)(C)NC(=O)[C@@H](N)Cc1ccc(O)cc1)[C@@H](C)O)[C@@H](C)O)[C@@H](C)CC)[C@@H](C)CC)[C@@H](C)CC)C(N)=O)C(=O)O [Example 435] |  |  |  |  |  |  |  |  |  | 0.0527 |  | > 9950 | > 9950 | 98.7 |  | 0.00517 | 0.122 | 97.8 | 111
4 | CCCCCCCCCCCC(=O)N[C@@H](CCC(=O)NCCOCCOCC(=O)NCCOCCOCC(=O)NCCOCCOCC(=O)NCCCC[C@H](NC(=O)[C@H](CCCN)NC(=O)[C@H](CC(=O)O)NC(=O)[C@H](CC(C)C)NC(=O)[C@](C)(CC(C)C)NC(=O)[C@@H](NC(=O)C(C)(C)NC(=O)[C@H](CCCCNC(=O)COCCOCCNC(=O)COCCOCCNC(=O)COCCOCCNC(=O)CC[C@H](NC(=O)CCCCCCCCCCC)C(=O)O)NC(=O)[C@H](CC(=O)O)NC(=O)[C@H](CO)NC(=O)[C@@H](NC(=O)[C@](C)(Cc1ccccc1F)NC(=O)[C@@H](NC(=O)CNC(=O)[C@H](CCC(=O)O)NC(=O)C(C)(C)NC(=O)[C@@H](N)Cc1ccc(O)cc1)[C@@H](C)O)[C@@H](C)O)[C@@H](C)CC)C(=O)N[C@@H](C)C(=O)N[C@@H](CCC(N)=O)C(=O)NC(C)(C)C(=O)N[C@@H](CCC(=O)O)C(=O)N[C@@](C)(Cc1ccccc1)C(=O)N[C@H](C(=O)N[C@H](CCC(=O)O)C(=O)N[C@@](C)(Cc1ccc(O)cc1)C(=O)N[C@@H](CC(C)C)C(=O)N[C@H](C(=O)N[C@@H](CCC(=O)O)C(=O)NCC(=O)NCC(=O)N1CCC[C@H]1C(=O)N[C@@H](CO)C(=O)N[C@@H](CO)C(=O)NCC(=O)N[C@@H](C)C(=O)N1CCC[C@H]1C(=O)N1CCC[C@H]1C(=O)N1CCC[C@H]1C(=O)N[C@@H](CO)C(N)=O)[C@@H](C)CC)[C@@H](C)CC)C(=O)O [Example 436] |  |  |  |  |  |  |  |  |  | 0.102 |  | > 9950 | > 9950 | 96 |  | 0.00714 | 0.412 | 100 | 98.9
